How the values were obtained:
[1] = biological target: T1, human HDAC8 (Homo sapiens, UniProt Q9BY41); assay: Fluorometric HDAC activity assay, purified human HDAC8; assay type: biochemical; settings: purified human HDAC8, n=4-5
T1 construct: purchased BPS Bioscience 50068
T1 sequence (Q9BY41 1-377): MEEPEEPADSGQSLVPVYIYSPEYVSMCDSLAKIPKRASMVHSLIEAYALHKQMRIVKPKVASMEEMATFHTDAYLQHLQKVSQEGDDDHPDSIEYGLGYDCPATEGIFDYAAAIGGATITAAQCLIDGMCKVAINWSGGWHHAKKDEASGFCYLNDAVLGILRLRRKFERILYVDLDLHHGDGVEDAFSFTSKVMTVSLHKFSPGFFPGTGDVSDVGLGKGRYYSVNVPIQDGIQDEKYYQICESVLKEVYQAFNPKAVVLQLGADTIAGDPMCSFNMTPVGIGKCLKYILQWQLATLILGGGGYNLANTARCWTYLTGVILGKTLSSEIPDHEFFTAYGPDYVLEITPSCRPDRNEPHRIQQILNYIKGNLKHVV
Description: In order to directly test whether diacetyl acts as an inhibitor of HDACs, in vitro acetylation assays was performed with purified human HDACs. In this example, β-hydroxybutyrate (a naturally-occurring HDAC inhibitor secreted by the liver, targeting zinc-dependent HDACs) was used for comparison. HDAC activity of class I HDACs (HDAC1, 2, 3 and 8) was measured with the fluorometric HDAC Activity Assay kit: HDAC1 (10011563, Cayman Chemical, Ann Arbor, Mich.), HDAC2, HDAC 3 and HDAC 8 (50062, 50073 and 50068, BPS Bioscience, San Diego, Calif.), according to the manufacturer's instructions.

[2] = system: gene expression in the antenna of Drosophila melanogaster; assay: RNA-seq transcriptome analysis of Drosophila antennae after exposure or feeding; assay type: in vivo
Text: In order to examine the physiological effects of long-term exposure to an odorant, flies were maintained in vials with circulating volatiles from headspace of a low concentration (1% in paraffin oil) of the odorant diacetyl, which acts on a number of different receptor pathways in Drosophila. In a similar manner to previous odor-exposure studies, flies were exposed to diacetyl for 5 days and performed an RNA-seq analysis of the antennae, which are known odor-detecting organs. The transcriptome was compared with a control group of age-matched flies that were exposed to the headspace of the solvent paraffin oil (PO, FIG. 3A).
Flies were exposed to diacetyl (2,3-Butanedione, B85307, Sigma-Aldrich, St. Louis, Mo.) by placing them in vials in a cylindrical closed container (112 mm diameter×151 mm height) along with an odor-containing glass vial. The odorant was dissolved in 10 mL paraffin oil at 1% dilution. For a given exposure protocol, two groups of flies were prepared: those exposed to 1% diacetyl headspace and those exposed to paraffin oil headspace alone (control flies). Adult male flies aged 1 d were transferred to fly vials containing fresh medium, and put into the container with the odor vial. At the end of the fifth day of exposure, flies were collected, and their antennae were dissected for RNA extraction. All treatments and experiments were performed at room temperature. For the recovery experiment, flies were transferred again to the container containing a glass vial of paraffin oil after 5 days of diacetyl exposure. At the end of the fifth day of recovery, flies were collected, and their antennae were dissected for RNA extraction.
Sodium butyrate (B5887, Sigma-Aldrich) or valproic acid (P4543, Sigma-Aldrich) were dissolved in normal fly food medium at the final concentration of 10 mM. Three groups of flies were prepared: those treated with one of the HDAC inhibitors and those without HDAC inhibitor treatment (control flies). Adult flies aged 1 d were transferred to fly vials containing medium with or without a HDAC inhibitor. At the end of the fifth day of treatment, flies were collected, and their antennae were dissected for RNA extraction. All treatments and experiments were performed at room temperature.
The second and third antennal segments from 40-60 male flies after treatment were carefully hand-dissected from the head, collected in 1.5 ml microfuge tubes kept cold in liquid nitrogen. Antennae were mechanically crushed with disposable RNAse-free plastic pestles, and total RNA was isolated using a Trizol-based protocol. cDNA libraries were prepared from total RNA (300-1000 ng/sample) using the Illumina TruSeq RNA Library Preparation Kit (Illumina Catalog #RS-122-2001). Samples were submitted to the UCR IIGB sequencing core for high-throughput sequencing using the Illumina HiSeq2500 platform. Raw reads were aligned to the Drosophila melanogaster reference genome (dmel-all-chromosome-r5.48.fasta) with Tophat2, and a count table of reads overlapping with exonic regions of genes was generated by the UCR bioinformatics core. The numbers of biological replicates are: 2, day 5 paraffin oil; 1, day 5 diacetyl; 2, day 5 mock; 2, day 5 sodium butyrate; 2, day 5 valproic acid; 2, day 10 paraffin oil recovery; 2, day 10 diacetyl recovery.
The read count table for all the genes were then imported into R and a statistical analysis of differential gene expression using the DESeq package (1.22.0) was performed. […] The gene list analysis was performed using the GO Term Mapper (http://go.princeton.edu/) with Generic GO slim datasets, and the Statistical overrepresentation test was performed using the PANTHER classification (http://www.pantherdb.org/) system with GO complete datasets.
This example investigates the overlap among genes modulated by diacetyl as compared to sodium butyrate and valproic acid, which are known HDAC inhibitors. […]

[3] = 5 days, diacetyl 1% headspace, SB/VA 10 mM in food, vs control
[4] = of 125 up-regulated genes, 5 days exposure then 5 days recovery
[5] = out of 125 diacetyl-induced genes

CC(=O)C(C)=O [diacetyl, 2,3-Butanedione]
IC50 [1]: 11.4 mM
number of differentially-expressed genes in antennal transcriptome [2, 3]: 202 genes
number of genes down-regulated >2-fold [2, 3]: 77 genes
number of genes up-regulated >2-fold [2, 3]: 125 genes
genes continuing to show increased mRNA abundance after odor removal [2, 4]: 11 genes
genes showing little change after recovery [2, 4]: 38 genes
transcripts showing a reduction with diacetyl recovery [2, 4]: 27 genes
diacetyl down-regulated genes overlapping with those down-regulated in either SB- or VA-treated groups ([2]; out of 77 down-regulated genes): About 28 genes
diacetyl-induced genes overlapping with SB-induced genes [2, 5]: 51 genes
diacetyl-induced genes overlapping with VA-induced genes [2, 5]: 40 genes
